Source: US20230151437A1, “USE OF PROTEIN ASSEMBLIES TO RECORD CELLULAR EVENTS” (President and Fellows of Harvard College, priority 2021, published 2023)

Columns and labels:
[1] = tested on: Tet-ON transcription system; assay: Ticker tape recording of DOX activation of the Tet-ON system in HEK cells; assay type: cell-based
Experimental: FIGS. 16A-16B show recordings of impulse response of protein expression following pulsed doxycycline (DOX) activation in HEK293T cells. […] Transitions to JF669 at t=0 and to JFX608 at t=8 h provided fiducial timestamps. Transcription was activated via addition of 2 μg/mL DOX at t=−0.5 h, followed by a thorough wash at t=0 h. FIG. 16B provides three representative examples showing the GFP intensity profiles on the protein ticker tapes. Top: representative images. Bottom: fluorescence line profiles. Scale bars: […].
As the first test of a physiological recording, iPAK4 assemblies were used to report on a transcriptional activator, the tetracycline mediated Tet-ON transcription system.^28 HEK cells were co-infected with lentivirus containing CMV::iPAK4 (60%), CMV::rTTA3 (30%), CMV::HT-iPAK4 (5%), and CMV::eGFP-iPAK4 (5%) to establish tetracycline-dependent eGFP-iPAK4 expression (FIG. 4A). After assemblies had nucleated (24 h after lentiviral infection), JF552 was added to label the initial nuclei, and JF669 was added at t=0. In different dishes, doxycycline (DOX, 2 μg/mL) was added at t=2, 4, or 6 h to activate expression of eGFP-iPAK4. Then JF552 was added again at t=8 h, and the assemblies were grown for another 8-14 h before fixation and imaging (FIG. 4B).

[2] = tested on: cFos promoter; assay: Ticker tape recording of PMA activation of cFos in neurons; assay type: cell-based, rat
From the text: In neurons co-expressing CMV::iPAK4 (90%) and cFos::eGFP-iPAK4 (10%), assemblies initially grew with little green fluorescence. […] Sequential additions of PMA to a single dish led to distinct bands of eGFP fluorescence, clearly resolved by sharp eGFP boundaries (FIG. 5G).
To measure timing of cFos activation relative to fiducial timestamps, CMV::iPAK4 (80%), CMV::HT-iPAK4 (10%), and cFos::eGFP-iPAK4 (10%; FIG. 5E) were co-expressed. The neurons were stained with JF552, and then switched to JF669 at t=0. PMA (1 μM) was then added at t=3, 6, or 9 h, and a second fiducial timestamp was introduced by switching back to JF552 at t=12 h. Assemblies were grown until t=22 h and then fixed and imaged (FIG. 5F).
Chemical activation of neuronal activity: The cFos promoter was activated by phorbol 12-myristate 13-acetate (PMA; Sigma Aldrich P8139). Briefly, the PMA was first diluted with DMSO to form a 1 mM stock solution. At the designated time, 2 μl PMA stock was directly added to each 14 mm glass-bottom culture dish, which contained 2 ml BPNM/SM1 medium. The dishes were then stirred gently to mix the PMA and medium. After PMA addition, the dishes were returned to an incubator at 37° C. with 5% CO2.

[3] = biological target: T1, intracellular HT receptors (HT-NLS) (Rhodococcus rhodochrous, UniProt P0A3G2, A155T/A167V/A172T/A224E/C128F/C176G/D78G/E160K/E257K/H272N/K175M/K195N/L47V/L88M/N227D/P291S/S2A/S58T/T264A/Y273L/Y87F); assay: Kinetics of HT dye labeling in HEK293T cells expressing HT-NLS; assay type: cell-based; details: for effective time constant of HT dye labeling: 1 μM dye, HEK293T cells; for first-order reaction rate constant of HT dye labeling: HEK293T cells expressing HT-NLS, 0.1 μM dye, combined membrane permeation and HT reaction
T1 construct: host or cells: HEK293T
Experimental: FIGS. 13A-13C show kinetics of HT dye labeling and turnover in HEK293T cells. […] The sharpness of the dye transition was 7.5 min, as calculated by the width of the peak in the second derivative of fluorescence vs. position (purple). FIGS. 13B-13C show kinetics of HT dye reaction in HEK293T cells. HEK293T cells expressing a nucleus-targeted HT construct (HT-NLS, Addgene #82518) were incubated with 0.1 μM of the indicated dye (FIG. 3B) or 1 μM of the indicated dye (FIG. 3C), and nuclear fluorescence was monitored as a function of time. In FIG. 3B, HT-iPAK4 labeling experiments were performed with 10-fold higher dye concentrations (1 μM).
Dye additions appeared as upward-going kinks in the fluorescence profiles (FIGS. 12D, 13A), which were located as peaks in the second derivative of fluorescence vs. position. By dividing the transition zone widths (full-width at half-maximum of the peak in the second derivative) by the assembly-specific growth rates, a mean transition zone duration of 7.5 min was calculated (FIG. 13A). To determine whether the kinetics of HT dye labeling affected the widths of these transitions, the labeling of intracellular HT receptors was measured with several different HT dyes. These measurements probed the combined effects of membrane permeation and the HT reaction. The first-order reaction rate constants were 2.9 μM^−1 min^−1 (JF525), 0.13 μM^−1 min^−1 (JFX608), and 0.27 μM^−1 min^−1 (JF669) (FIG. 13B). […] The effective time constants at 1 μM dye were: 43 min (JF503), 3.5 min (JF525), 2.0 min (JF552), 12 min (JFX608), and 17 min (JF669) (FIGS. 13A and 13C). The precision of localizing a dye transition in an assembly is not equal to the labeling time constant, but rather the precision with which one can identify the onset of the labeling reaction. For all the JF dyes, this time was much less than 10 min.
Measurements of HT dye labeling kinetics in HEK293T cells: HEK293T cells were transfected with an inducible nuclear-localized HT protein (HT-NLS, Addgene #82518). Doxycycline (DOX, 2 μg/ml) was added 12 h after transfection to induce the expression of HT-NLS. 24 h after transfection, cells were incubated with 0.1 μM of the indicated dye, and nuclear fluorescence was monitored via wide-field epifluorescence microscopy as a function of time.

T1 sequence (P0A3G2 other isoform, or with tags, fused parts or gaps with the stated changes): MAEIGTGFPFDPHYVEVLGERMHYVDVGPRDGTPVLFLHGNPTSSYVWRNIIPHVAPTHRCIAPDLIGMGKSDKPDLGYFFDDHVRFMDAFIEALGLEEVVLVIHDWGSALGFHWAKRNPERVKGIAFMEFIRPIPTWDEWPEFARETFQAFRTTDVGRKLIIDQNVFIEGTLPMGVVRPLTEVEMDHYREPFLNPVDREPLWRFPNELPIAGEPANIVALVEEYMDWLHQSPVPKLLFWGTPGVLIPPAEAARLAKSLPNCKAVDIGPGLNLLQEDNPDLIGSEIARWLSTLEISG

C[C@H]1c2cccc(O)c2C(=O)C2=C(O)[C@]3(O)C(=O)C(C(N)=O)=C(O)[C@@H](N(C)C)[C@@H]3[C@@H](O)[C@@H]21 [DOX, doxycycline]
duration of rise of eGFP-iPAK4 expression ([1]; 30-minute pulse of DOX): approximately 8 h | window of protein expression ([1]; 30-minute pulse of DOX): ~14 h | offset between DOX addition and start of the green stripe (y-intercept of linear fit) ([1]; DOX 2 μg/mL at t=2, 4 or 6 h, HEK cells, N=191 assemblies): 1.2 h

CCCCCCCCCCCCCC(=O)O[C@@H]1[C@@H](C)[C@@]2(O)[C@@H](C=C(CO)C[C@]3(O)C(=O)C(C)=C[C@@H]23)[C@@H]2C(C)(C)[C@]12OC(C)=O [PMA, phorbol 12-myristate 13-acetate]
delay of eGFP onset relative to PMA addition ([2]; PMA 1 μM at t=3, 6 or 9 h, neurons, extrapolated fit): 53 min | effect on cFos::eGFP-iPAK4 expression ([2]; PMA 1 μM, neurons co-expressing CMV::iPAK4 and cFos::eGFP-iPAK4): bands of bright green fluorescence | y-intercept of linear fit of eGFP onset ([2]; PMA at t=3, 6 or 9 h, neurons): ca. 1.0 h

JF525 [reference compound]
effective time constant of HT dye labeling [3]: 3.5 min | first-order reaction rate constant of HT dye labeling [3]: 48300 M⁻¹ s⁻¹

JFX608-HaloTag ligand
effective time constant of HT dye labeling [3]: 12 min | first-order reaction rate constant of HT dye labeling [3]: 2170 M⁻¹ s⁻¹
